Data: US20160060260A1, “BROMODOMAIN INHIBITORS FOR TREATING DISEASE” (Board of Regents, The University of Texas System, priority 2014, published 2016)

Biological target: T1, Recombinant human His-tagged Trim24-PHD-bromodomain (Homo sapiens, UniProt O15164)
T1 construct: Recombinant human His-tagged Trim24-PHD-bromodomain (produced in-house); made in house
T1 sequence (O15164 824-1006 limits assumed): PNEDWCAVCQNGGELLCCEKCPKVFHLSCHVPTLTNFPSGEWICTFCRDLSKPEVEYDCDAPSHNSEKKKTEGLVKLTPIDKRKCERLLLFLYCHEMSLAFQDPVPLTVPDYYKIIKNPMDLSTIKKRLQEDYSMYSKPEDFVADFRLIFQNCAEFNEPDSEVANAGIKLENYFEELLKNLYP
Assay: Trim24 AlphaScreen Assay
Assay type: binding
Details: 5 nM Trim24 protein, 15 nM biotinylated H3K23ac (1-33aa) peptide
Procedure, shortened: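 His-tagged Trim24-PHD-bromodomain, biotinylated H3K23ac (1-33aa) peptide and compound incubated 1 h at room temperature in 50 mM Hepes pH 7.5, 100 mM NaCl, 0.12 mM Triton X-100.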

IC50	Structure (SMILES)
> 1000 nM	Cn1cnc(S(=O)(=O)Nc2cc3c(cc2Oc2cccc(OCCCC(=O)O)c2)n(C)c(=O)n3C)c1 [Example 227, 4-(3-(1,3-dimethyl-6-(1-methyl-1H-imidazole-4-sulfonamido)-2-oxo-2,3-dihydro-1H-benzo[d]imidazol-5-yloxy)phenoxy)butanoic acid]
10 to 100 nM	CCCOc1cc(OCCCOC)cc(Oc2cc3c(cc2NS(=O)(=O)c2cn(C)cn2)n(C)c(=O)n3C)c1 [Example 152, N-(6-(3-(3-methoxypropoxy)-5-propoxyphenoxy)-1,3-dimethyl-2-oxo-2,3-dihydro-1H-benzo[d]imidazol-5-yl)-1-methyl-1H-imidazole-4-sulfonamide]
100 to 1000 nM	CCCOc1cccc(Oc2cc3c(cc2NS(=O)(=O)C2CC2)n(C)c(=O)n3C)c1 [Example 82, N-(1,3-dimethyl-2-oxo-6-(3-propoxyphenoxy)-2,3-dihydro-1H-benzo[d]imidazol-5-yl)cyclopropanesulfonamide]
1 to 10 nM	CCCOc1cc(OCCCCCCN)cc(Oc2cc3c(cc2NS(=O)(=O)c2cnn(C)c2C)n(C)c(=O)n3C)c1 [Example 189, N-(6-(3-((6-aminohexyl)oxy)-5-propoxyphenoxy)-1,3-dimethyl-2-oxo-2,3-dihydro-1H-benzo[d]imidazol-5-yl)-1,5-dimethyl-1H-pyrazole-4-sulfonamide]
10 to 100 nM	CCCOc1cc(C#N)cc(Oc2cc3c(cc2NS(=O)(=O)c2ccc(OC)c(OC)c2)n(C)c(=O)n3C)c1 [Example 109, N-(6-(3-cyano-5-propoxyphenoxy)-1,3-dimethyl-2-oxo-2,3-dihydro-1H-benzo[d]imidazol-5-yl)-3,4-dimethoxybenzenesulfonamide]
10 to 100 nM	CCCOc1cc(OCCCOC)cc(Oc2cc3c(cc2NS(=O)(=O)c2cn(C)c(Cl)n2)n(C)c(=O)n3C)c1 [Example 149, 2-chloro-N-(6-(3-(3-methoxypropoxy)-5-propoxyphenoxy)-1,3-dimethyl-2-oxo-2,3-dihydro-1H-benzo[d]imidazol-5-yl)-1-methyl-1H-imidazole-4-sulfonamide]
100 to 1000 nM	COCCCOc1cc(C#N)cc(Oc2cc3c(cc2NS(=O)(=O)c2ccn(C)n2)n(C)c(=O)n3C)c1 [Example 121, N-(6-(3-cyano-5-(3-methoxypropoxy)phenoxy)-1,3-dimethyl-2-oxo-2,3-dihydro-1H-benzo[d]imidazol-5-yl)-1-methyl-1H-pyrazole-3-sulfonamide]
10 to 100 nM	COc1ccc(S(=O)(=O)Nc2cc3c(cc2Oc2cccc(OCC(F)(F)F)c2)n(C)c(=O)n3C)cn1 [Example 221, N-(1,3-dimethyl-2-oxo-6-(3-(2,2,2-trifluoroethoxy)phenoxy)-2,3-dihydro-1H-benzo[d]imidazol-5-yl)-6-methoxypyridine-3-sulfonamide]
> 1000 nM	COCCS(=O)(=O)Nc1cc2c(cc1Oc1cccc(OCc3ccccc3)c1)n(C)c(=O)n2C [Example 27, N-(6-(3-(benzyloxy)phenoxy)-1,3-dimethyl-2-oxo-2,3-dihydro-1H-benzo[d]imidazol-5-yl)-2-methoxyethane-1-sulfonamide]
100 to 1000 nM	CCn1nccc1S(=O)(=O)Nc1cc2c(cc1Oc1cccc(OCc3ccccc3)c1)n(C)c(=O)n2C [Example 42, N-(6-(3-(benzyloxy)phenoxy)-1,3-dimethyl-2-oxo-2,3-dihydro-1H-benzo[d]imidazol-5-yl)-1-ethyl-1H-pyrazole-5-sulfonamide]
100 to 1000 nM	Cn1c(=O)n(C)c2cc(Oc3cccc(OCc4ccccc4)c3)c(NS(=O)(=O)c3nnc[nH]3)cc21 [Example 22, N-(6-(3-(benzyloxy)phenoxy)-1,3-dimethyl-2-oxo-2,3-dihydro-1H-benzo[d]imidazol-5-yl)-4H-1,2,4-triazole-3-sulfonamide]
10 to 100 nM	COCCCOc1cc(OCC(F)(F)F)cc(Oc2cc3c(cc2NS(=O)(=O)c2cn(C)c(C)n2)n(C)c(=O)n3C)c1 [Example 141, N-(6-(3-(3-methoxypropoxy)-5-(2,2,2-trifluoroethoxy)phenoxy)-1,3-dimethyl-2-oxo-2,3-dihydro-1H-benzo[d]imidazol-5-yl)-1,2-dimethyl-1H-imidazole-4-sulfonamide]
100 to 1000 nM	Cc1n[nH]cc1S(=O)(=O)Nc1cc2c(cc1Oc1cccc(OCc3ccccc3)c1)n(C)c(=O)n2C [Example 48, N-(6-(3-(benzyloxy)phenoxy)-1,3-dimethyl-2-oxo-2,3-dihydro-1H-benzo[d]imidazol-5-yl)-3-methyl-1H-pyrazole-4-sulfonamide]
100 to 1000 nM	Cn1cnc(S(=O)(=O)Nc2cc3c(cc2Oc2cccc(OCC4CCOC4)c2)n(C)c(=O)n3C)c1 (stereo not shown) [Example 64, N-(1,3-dimethyl-2-oxo-6-(3-((tetrahydrofuran-3-yl)methoxy)phenoxy)-2,3-dihydro-1H-benzo[d]imidazol-5-yl)-1-methyl-1H-imidazole-4-sulfonamide]
10 to 100 nM	CCCOc1cc(OCCCOC)cc(Oc2cc3c(cc2NS(=O)(=O)c2cn(C(C)CC)cn2)n(C)c(=O)n3C)c1 (stereo not shown) [Example 148, 1-(sec-butyl)-N-(6-(3-(3-methoxypropoxy)-5-propoxyphenoxy)-1,3-dimethyl-2-oxo-2,3-dihydro-1H-benzo[d]imidazol-5-yl)-1H-imidazole-4-sulfonamide]

Continued, molecule first:

Structure (SMILES)	IC50
CCCOc1cc(OCCCCCCO)cc(Oc2cc3c(cc2NS(=O)(=O)c2cn(C)cn2)n(C)c(=O)n3C)c1 [Example 181, N-(6-(3-((6-hydroxyhexyl)oxy)-5-propoxyphenoxy)-1,3-dimethyl-2-oxo-2,3-dihydro-1H-benzo[d]imidazol-5-yl)-1-methyl-1H-imidazole-4-sulfonamide]	10 to 100 nM
Cn1c(=O)n(C)c2cc(Oc3cccc(OCc4ccccc4)c3)c(NS(=O)(=O)c3ccccc3)cc21 [Example 13, N-(6-(3-(benzyloxy)phenoxy)-1,3-dimethyl-2-oxo-2,3-dihydro-1H-benzo[d]imidazol-5-yl)benzenesulfonamide]	> 1000 nM
COc1ccc(S(=O)(=O)Nc2cc3c(cc2Oc2cc(OCCCCN(C)C)cc(OCC(F)(F)F)c2)n(C)c(=O)n3C)cc1OC [Example 211, N-(6-(3-(4-(dimethylamino)butoxy)-5-(2,2,2-trifluoroethoxy)phenoxy)-1,3-dimethyl-2-oxo-2,3-dihydro-1H-benzo[d]imidazol-5-yl)-3,4-dimethoxybenzenesulfonamide]	1 to 10 nM
COCCCOc1cc(OCC(F)(F)F)cc(Oc2cc3c(cc2NS(=O)(=O)c2ccc(OC)c(OC)c2)n(C)c(=O)n3C)c1 [Example 195]	10 to 100 nM
CCCOc1cccc(Oc2cc3c(cc2NS(=O)(=O)c2ccccn2)n(C)c(=O)n3C)c1 [Example 168, N-(1,3-dimethyl-2-oxo-6-(3-propoxyphenoxy)-2,3-dihydro-1H-benzo[d]imidazol-5-yl)pyridine-2-sulfonamide]	10 to 100 nM
CC(C)COc1cc(F)cc(Oc2cc3c(cc2NS(=O)(=O)c2cn(C)cn2)n(C)c(=O)n3C)c1 [Example 224, N-(6-(3-fluoro-5-isobutoxyphenoxy)-1,3-dimethyl-2-oxo-2,3-dihydro-1H-benzo[d]imidazol-5-yl)-1-methyl-1H-imidazole-4-sulfonamide]	10 to 100 nM
Cn1cnc(S(=O)(=O)Nc2cc3c(cc2Oc2cc(OCC4CC4)cc(OCC4CC4)c2)n(C)c(=O)n3C)c1 [Example 117, N-(6-(3,5-bis(cyclopropylmethoxy)phenoxy)-1,3-dimethyl-2-oxo-2,3-dihydro-1H-benzo[d]imidazol-5-yl)-1-methyl-1H-imidazole-4-sulfonamide]	10 to 100 nM
COc1ccc(S(=O)(=O)Nc2cc3c(cc2Oc2cccc(OCC(F)(F)F)c2)n(C)c(=O)n3C)cc1OC [Example 184, N-(1,3-dimethyl-2-oxo-6-(3-(2,2,2-trifluoroethoxy)phenoxy)-2,3-dihydro-1H-benzo[d]imidazol-5-yl)-3,4-dimethoxybenzenesulfonamide]	10 to 100 nM
CCCOc1cc(OCCCCN)cc(Oc2cc3c(cc2NS(=O)(=O)c2ccccn2)n(C)c(=O)n3C)c1 [Example 198, N-(6-(3-(4-aminobutoxy)-5-propoxyphenoxy)-1,3-dimethyl-2-oxo-2,3-dihydro-1H-benzo[d]imidazol-5-yl)pyridine-2-sulfonamide]	10 to 100 nM
CCCOc1cc(OCCCOC)cc(Oc2cc3c(cc2NS(=O)(=O)c2ccc4c(c2)COC4)n(C)c(=O)n3C)c1 [Example 162, N-(6-(3-(3-methoxypropoxy)-5-propoxyphenoxy)-1,3-dimethyl-2-oxo-2,3-dihydro-1H-benzo[d]imidazol-5-yl)-1,3-dihydroisobenzofuran-5-sulfonamide]	100 to 1000 nM
Cn1cnc(S(=O)(=O)Nc2cc3c(cc2Oc2cccc(OCCCC(F)(F)F)c2)n(C)c(=O)n3C)c1 [Example 84, N-(1,3-dimethyl-2-oxo-6-(3-(4,4,4-trifluorobutoxy)phenoxy)-2,3-dihydro-1H-benzo[d]imidazol-5-yl)-1-methyl-1H-imidazole-4-sulfonamide]	100 to 1000 nM
COc1cc(S(=O)(=O)Nc2cc3c(cc2Oc2cccc(OCC4CC4)c2)n(C)c(=O)n3C)ccc1O [Example 241, N-(6-(3-(cyclopropylmethoxy)phenoxy)-1,3-dimethyl-2-oxo-2,3-dihydro-1H-benzo[d]imidazol-5-yl)-4-hydroxy-3-methoxybenzenesulfonamide]	10 to 100 nM
Cn1cnc(S(=O)(=O)Nc2cc3c(cc2Oc2cccc(OCc4cccnc4)c2)n(C)c(=O)n3C)c1 [Example 39, N-(1,3-dimethyl-2-oxo-6-(3-(pyridin-3-ylmethoxy)phenoxy)-2,3-dihydro-1H-benzo[d]imidazol-5-yl)-1-methyl-1H-imidazole-4-sulfonamide]	100 to 1000 nM
